Source: PubChem BioAssay AID256 (DTP/NCI, 2004)
Values joined by “and” are separate entries in the source; they are usually repeats but may differ in a detail not shown here. Equal values may be shown once. Toxic doses and inconclusive results are not listed. The calls were made as follows: active = survival T/C of 150% or more; inactive = T/C below 125% in these data.

System: CD2F1 mice, L1210 leukemia ip, survival T/C
Experiment: NCI In Vivo Anticancer Drug Screen. Data for tumor model L1210 Leukemia (intraperitoneal) in CD2F1 (CDF1) mice
Settings: higher = longer survival
In short: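 Transplantable tumor in mice; compound-treated vs vehicle-treated groups. Read-out = treated/control ratio of the measured endpoint.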

[1] = endpoint: mean survival time, dose: 100.0 mg/kg/injection, schedule: Q01DX001 (ip), vehicle: saline with Tween-80
[2] = endpoint: mean survival time, dose: 25.0 mg/kg/injection, schedule: Q04DX003 (ip), vehicle: saline with Tween-80
[3] = endpoint: mean survival time, dose: 50.0 mg/kg/injection, schedule: Q04DX003 (ip), vehicle: saline with Tween-80
[4] = endpoint: mean survival time, dose: 100.0 mg/kg/injection, schedule: Q01DX009 (ip), vehicle: saline with Tween-80
[5] = endpoint: mean survival time, dose: 100.0 mg/kg/injection, schedule: Q04DX003 (ip), vehicle: saline with Tween-80
[6] = endpoint: mean survival time, dose: 200.0 mg/kg/injection, schedule: Q01DX009 (ip), vehicle: saline with Tween-80
[7] = endpoint: mean survival time, dose: 200.0 mg/kg/injection, schedule: Q04DX003 (ip), vehicle: saline with Tween-80
[8] = endpoint: mean survival time, dose: 400.0 mg/kg/injection, schedule: Q04DX003 (ip), vehicle: saline with Tween-80
[9] = endpoint: mean survival time, dose: 400.0 mg/kg/injection, schedule: Q01DX009 (ip), vehicle: saline with Tween-80
[10] = endpoint: mean survival time, dose: 100.0 mg/kg/injection, schedule: Q04DX003 (ip), vehicle: Klucel (hydroxypropylcellulose) (HPC)
[11] = endpoint: mean survival time, dose: 100.0 mg/kg/injection, schedule: Q04DX002 (ip), vehicle: saline with Tween-80
[12] = endpoint: mean survival time, dose: 200.0 mg/kg/injection, schedule: Q04DX002 (ip), vehicle: saline with Tween-80
[13] = endpoint: mean survival time, dose: 400.0 mg/kg/injection, schedule: Q04DX002 (ip), vehicle: saline with Tween-80
[14] = endpoint: mean survival time, dose: 100.0 mg/kg/injection, schedule: Q04DX003 (ip), vehicle: saline

Measured: T/C

COc1cccc2c1C(=O)c1c(O)c3c(c(O)c1C2=O)C[C@@](O)(/C(C)=N/NC(=O)c1ccc(-c2ccccc2)cc1)C[C@@H]3OC1CC(N)C(O)C(C)O1 (some centres not stated)
inactive: endpoint: mean survival time, dose: 0.06 mg/kg/injection, schedule: Q01DX009 (ip), vehicle: water 104 % of control | endpoint: mean survival time, dose: 0.13 mg/kg/injection, schedule: Q01DX009 (ip), vehicle: water 103 % of control | endpoint: mean survival time, dose: 0.25 mg/kg/injection, schedule: Q01DX009 (ip), vehicle: water 114 % of control | endpoint: mean survival time, dose: 0.5 mg/kg/injection, schedule: Q01DX009 (ip), vehicle: water 117 % of control | endpoint: mean survival time, dose: 1.0 mg/kg/injection, schedule: Q01DX009 (ip), vehicle: water 115 % of control | endpoint: mean survival time, dose: 2.0 mg/kg/injection, schedule: Q01DX009 (ip), vehicle: water 122 % of control | endpoint: mean survival time, dose: 4.0 mg/kg/injection, schedule: Q01DX009 (ip), vehicle: water 111 % of control | endpoint: mean survival time, dose: 8.0 mg/kg/injection, schedule: Q01DX009 (ip), vehicle: water 117 % of control | endpoint: mean survival time, dose: 16.0 mg/kg/injection, schedule: Q01DX009 (ip), vehicle: water 88 % of control

CCCCNS(=O)(=O)c1cn(CCCC)c(=O)[nH]c1=O
inactive: endpoint: mean survival time, dose: 37.5 mg/kg/injection, schedule: Q01DX001 (ip), vehicle: saline with Tween-80 100 % of control | endpoint: mean survival time, dose: 150.0 mg/kg/injection, schedule: Q01DX001 (ip), vehicle: saline with Tween-80 96 % of control | endpoint: mean survival time, dose: 175.0 mg/kg/injection, schedule: Q01DX001 (ip), vehicle: saline with Tween-80 100 % of control

CC(N)CCCO (configuration not stated)
inactive: endpoint: mean survival time, dose: 200.0 mg/kg/injection, schedule: Q01DX001 (ip), vehicle: saline 109 % of control | endpoint: mean survival time, dose: 400.0 mg/kg/injection, schedule: Q01DX001 (ip), vehicle: saline 94 % of control

CCOC(=O)COc1ccc(OC)cc1C=O
inactive: [1] 93 % of control | endpoint: mean survival time, dose: 200.0 mg/kg/injection, schedule: Q01DX001 (ip), vehicle: saline with Tween-80 93 % of control | endpoint: mean survival time, dose: 400.0 mg/kg/injection, schedule: Q01DX001 (ip), vehicle: saline with Tween-80 97 % of control

Clc1[nH]nc2ccccc12
inactive: endpoint: mean survival time, dose: 12.5 mg/kg/injection, schedule: Q01DX009 (ip), vehicle: saline with Tween-80 102 % of control | endpoint: mean survival time, dose: 12.5 mg/kg/injection, schedule: Q04DX003 (ip), vehicle: saline with Tween-80 98 % of control | endpoint: mean survival time, dose: 25.0 mg/kg/injection, schedule: Q01DX001 (ip), vehicle: saline with Tween-80 90 % of control | endpoint: mean survival time, dose: 25.0 mg/kg/injection, schedule: Q01DX009 (ip), vehicle: saline with Tween-80 105 % of control | [2] 93 % of control and 97 % of control | endpoint: mean survival time, dose: 50.0 mg/kg/injection, schedule: Q01DX001 (ip), vehicle: saline with Tween-80 98 % of control | endpoint: mean survival time, dose: 50.0 mg/kg/injection, schedule: Q01DX009 (ip), vehicle: saline with Tween-80 89 % of control | [3] 101 % of control | [1] 93 % of control | [4] 101 % of control | [5] 98 % of control and 97 % of control | [6] 89 % of control | [7] 100 % of control | [8] 86 % of control

O=C1CCn2c3ccccc3c3cccc1c32
inactive: [4] 101 % of control | [6] 101 % of control | [9] 96 % of control

CC(=O)NS(=O)(=O)c1ccc([NH-])cc1.CC(=O)NS(=O)(=O)c1ccc([NH-])cc1.[Cl][Pt+2][Cl]
inactive: [2] 102 % of control | [3] 97 % of control | [5] 96 % of control | [7] 94 % of control | [8] 104 % of control

C1OC1C1CO1 (configuration not stated)
inactive: endpoint: mean survival time, dose: 1.25 mg/kg/injection, schedule: Q01DX009 (ip), vehicle: saline 97 % of control and 98 % of control | endpoint: mean survival time, dose: 2.5 mg/kg/injection, schedule: Q01DX009 (ip), vehicle: saline 95 % of control and 100 % of control | endpoint: mean survival time, dose: 5.0 mg/kg/injection, schedule: Q01DX009 (ip), vehicle: saline 96 % of control and 103 % of control | endpoint: mean survival time, dose: 10.0 mg/kg/injection, schedule: Q01DX009 (ip), vehicle: saline 98 % of control and 105 % of control | endpoint: mean survival time, dose: 20.0 mg/kg/injection, schedule: Q01DX009 (ip), vehicle: saline 103 % of control and 112 % of control | endpoint: mean survival time, dose: 40.0 mg/kg/injection, schedule: Q01DX009 (ip), vehicle: saline 108 % of control

CCOC(=O)C(O)(C(=O)OCC)c1ccc(C)cc1
inactive: [4] 97 % of control | [5] 102 % of control | [6] 97 % of control | [7] 100 % of control | [9] 97 % of control | [8] 100 % of control

Nc1ccc(NC(=S)Nc2ccc(N)cc2)cc1
inactive: endpoint: mean survival time, dose: 25.0 mg/kg/injection, schedule: Q04DX003 (ip), vehicle: Klucel (hydroxypropylcellulose) (HPC) 104 % of control | endpoint: mean survival time, dose: 50.0 mg/kg/injection, schedule: Q04DX003 (ip), vehicle: Klucel (hydroxypropylcellulose) (HPC) 106 % of control | [10] 98 % of control

N/C(=N\OC(=O)Nc1ccc(CSc2ccc(Cl)cc2)o1)c1ccccn1
inactive: endpoint: median survival time, dose: 12.5 mg/kg/injection, schedule: Q01DX009 (ip), vehicle: Klucel (hydroxypropylcellulose) (HPC) 98 % of control | endpoint: median survival time, dose: 25.0 mg/kg/injection, schedule: Q01DX009 (ip), vehicle: Klucel (hydroxypropylcellulose) (HPC) 103 % of control | endpoint: median survival time, dose: 50.0 mg/kg/injection, schedule: Q01DX009 (ip), vehicle: Klucel (hydroxypropylcellulose) (HPC) 102 % of control | endpoint: median survival time, dose: 100.0 mg/kg/injection, schedule: Q01DX009 (ip), vehicle: Klucel (hydroxypropylcellulose) (HPC) 102 % of control | endpoint: median survival time, dose: 200.0 mg/kg/injection, schedule: Q01DX009 (ip), vehicle: Klucel (hydroxypropylcellulose) (HPC) 95 % of control

C=CCc1cc(CNCC(O)c2ccccc2)c(O)c(OC)c1 (configuration not stated)
inactive: endpoint: mean survival time, dose: 25.0 mg/kg/injection, schedule: Q01DX009 (ip), vehicle: Klucel (hydroxypropylcellulose) (HPC) 89 % of control | endpoint: mean survival time, dose: 50.0 mg/kg/injection, schedule: Q01DX009 (ip), vehicle: Klucel (hydroxypropylcellulose) (HPC) 112 % of control

C/C(=C\c1ccccc1)C(=O)c1ccccc1
inactive: [10] 106 % of control | endpoint: mean survival time, dose: 200.0 mg/kg/injection, schedule: Q04DX003 (ip), vehicle: Klucel (hydroxypropylcellulose) (HPC) 101 % of control | endpoint: mean survival time, dose: 400.0 mg/kg/injection, schedule: Q04DX003 (ip), vehicle: Klucel (hydroxypropylcellulose) (HPC) 98 % of control

CC(C)CCC(=O)/C=C\c1ccccc1
inactive: endpoint: mean survival time, dose: 50.0 mg/kg/injection, schedule: Q04DX002 (ip), vehicle: saline with Tween-80 104 % of control | [11] 96 % of control | [12] 86 % of control | [13] 86 % of control

NC1CONC1=O (configuration not stated)
inactive: [14] 94 % of control | endpoint: mean survival time, dose: 200.0 mg/kg/injection, schedule: Q04DX003 (ip), vehicle: saline 97 % of control | endpoint: mean survival time, dose: 400.0 mg/kg/injection, schedule: Q04DX003 (ip), vehicle: saline 96 % of control

CCN(CC)CCN1C(=O)c2cccc3cccc(c23)C1=O
inactive: endpoint: mean survival time, dose: 25.0 mg/kg/injection, schedule: Q04DX003 (ip), vehicle: saline 102 % of control | endpoint: mean survival time, dose: 50.0 mg/kg/injection, schedule: Q04DX003 (ip), vehicle: saline 98 % of control | [14] 102 % of control

Clc1ccc(Br)c2c1CCC2
inactive: endpoint: mean survival time, dose: 100.0 mg/kg/injection, schedule: Q04DX003 (ip), vehicle: acetone 101 % of control | endpoint: mean survival time, dose: 200.0 mg/kg/injection, schedule: Q04DX003 (ip), vehicle: acetone 100 % of control

O=C(NC(=S)Nc1cccc(O)c1)c1cccc(Br)c1
inactive: [4] 96 % of control | [6] 96 % of control | [9] 97 % of control

CC(C)(O)C1CC2C=CC1C2 (configuration not stated)
inactive: [11] 98 % of control | [12] 102 % of control | [13] 94 % of control
